Measurements from patent publication US20250129103A1, “METHODS FOR TREATMENT OF CANCER” (Frontier Medicines Corporation, priority 2022, published 2025).
In brackets after ≈: the same amount, converted by molar mass.

Assays:
[1] = molecular target: KRAS G12C (GMPPNP-loaded) and cRAF (Ras-binding domain) interaction (Homo sapiens (Human), UniProt P01116, C118S/C51S/C80L/G12C); assay: Inhibition of KRAS G12C and cRAF binding (AlphaScreen); conditions: KRAS G12C loaded with GMPPNP, cRaf RBD, 2 hours preincubation; read-out: Raf-1 RBD K-Ras IC50
Outline: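 AlphaScreen readout (680 nm excitation, 570 nm emission) of RBD binding after a 60-90 min bead step at room temperature. This step follows 2 h compound exposure of GMPPNP-preloaded KRAS G12C in Hepes pH 7.4 buffer with MgCl2 and 10 μM GMPPNP.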

[2] = molecular target: KRAS G12C (GMPPNP-loaded) and PI3Ka (Ras-binding domain) interaction (Homo sapiens (Human), UniProt P01116, C118S/C51S/C80L/G12C); assay: Inhibition of KRAS G12C and PI3Ka binding (AlphaScreen); conditions: KRAS G12C loaded with GMPPNP, PI3Ka RBD, 2 hours preincubation; read-out: PI3K RBD K-Ras IC50
Outline: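 Biotin-AviTag Cys-light KRAS G12C (aa 1-169, C51S/C80L/C118S), GMPPNP-loaded, 1.5 nM, preincubated 2 h with compound, then His-tagged PI3Ka RBD (aa 157-300, 100 nM) plus AlphaScreen beads added for 60-90 min, RT. Buffer Hepes pH 7.4, 10 μM GMPPNP, 2% DMSO; 10-point 1:3 from 50 μM; 4-parameter IC50.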

[3] = Determination of logD (1-octanol / phosphate buffer pH 7.4); type: physicochemical; conditions: 1-octanol/phosphate buffer, pH 7.4, pH 7.4, 1-octanol/phosphate buffer; read-out: Log D, pH 7.4
Outline: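 Each phase analysed by LCMS after 1 h shaking at 800 rpm and centrifugation, room temperature. Phases were mutually saturated 1-octanol and 100 mM phosphate buffer at pH 7.4. LogD derived from the phase concentrations.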

[4] = Determination of kinetic solubility (pH 7.4); type: physicochemical; conditions: phosphate buffer, pH 7.4, aqueous buffer, kinetic from dmso stock, 50 mM phosphate buffer pH 7.4, read-out: Ksol, pH 7.4
Outline: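 Solubility taken from filtrate peak areas on a calibration curve (HPLC-UV, LC-MS/MS). Before filtration and centrifugation, compound was shaken for 2 h at room temperature in pH 7.4 50 mM phosphate buffer.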

Chain of KRAS G12C (GMPPNP-loaded) and cRAF (Ras-binding domain) interaction (P01116 other isoform, or with tags, fused parts or gaps G12C/C51S/C80L/C118S): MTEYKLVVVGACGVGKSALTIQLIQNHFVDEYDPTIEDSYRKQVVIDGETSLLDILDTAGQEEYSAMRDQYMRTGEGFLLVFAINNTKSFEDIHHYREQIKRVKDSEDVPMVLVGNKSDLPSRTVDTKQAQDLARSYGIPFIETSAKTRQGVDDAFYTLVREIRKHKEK
Chain of KRAS G12C (GMPPNP-loaded) and PI3Ka (Ras-binding domain) interaction (P01116 other isoform, or with tags, fused parts or gaps G12C/C51S/C80L/C118S): as above

SMILES | IC50 [1] [nM] | IC50 [2] [nM] | logD [3] | solubility kinetic at 2 h [4] [µg/mL]
N#CC[C@H]1CN(c2nc(OC[C@@]34CCCN3C[C@H](F)C4)nc3c(F)c(-c4cccc(Cl)c4C(F)(F)F)ncc23)CCN1C(=O)/C=C/CN1CCCOCC1 [Compound 113, 2-((S)-1-((E)-4-(1,4-oxazepan-4-yl)but-2-enoyl)-4-(7-(3-chloro-2-(trifluoromethyl)phenyl)-8-fluoro-2-(((2R,7aS)-2-fluorotetrahydro-1H-pyrrolizin-7a(5H)-yl)methoxy)pyrido[4,3-d]pyrimidin-4-yl)piperazin-2-yl)acetonitrile] | < 10 | < 10 | 2.84 | 124 (≈ 160 µM)
Cc1cc(N)nc([C@@H]2Cc3nc(OC[C@@]45CCCN4C[C@H](F)C5)nc(N4CCN(C(=O)/C=C/c5nc([C@H]6C[C@@H]6F)no5)[C@@H](CC#N)C4)c3C[C@H]2C)c1C(F)(F)F [Compound 136] | < 10 | < 10 | 4.37 | 0.02 (≈ 0.0255 µM)
Cc1nsc(/C=C/C(=O)N2CCN(c3nc(OC[C@@]45CCCN4C[C@H](F)C5)nc4c(F)c(-c5cccc6cccc(Cl)c56)ncc34)C[C@@H]2CC#N)n1 [Compound 138] | < 10 | < 10 | 3.9 | 0.01 (≈ 0.0135 µM)
Cc1nccc(/C=C/C(=O)N2CCN(c3nc(OCC45CCCN4CCC5)nc4c(F)c(-c5cccc6cccc(Cl)c56)ncc34)C[C@@H]2CC#N)n1 [Compound 139] | 10 to 100 | < 10 | 1.93 | 107 (≈ 150 µM)
Cc1nccc(/C=C/C(=O)N2CCN(c3nc(OC[C@@]45CCCN4C[C@H](F)C5)nc4c(F)c(-c5cccc6cccc(Cl)c56)ncc34)C[C@@H]2CC#N)n1 [Compound 140] | < 10 | < 10 | 3.45 | 1.86 (≈ 2.53 µM)
Cc1nsc(/C=C/C(=O)N2CCN(c3nc(OCC45CCCN4CCC5)nc4c(F)c(-c5cccc6cccc(Cl)c56)ncc34)C[C@@H]2CC#N)n1 [Compound 143] | < 10 | < 10 | 2.39 | 87.8 (≈ 121 µM)

The next lines start with the values.

IC50 [1] [nM] | IC50 [2] [nM] | logD [3] | solubility kinetic at 2 h [4] [µg/mL] | SMILES
< 10 | < 10 | 4.46 | 0.01 (≈ 0.0138 µM) | Cc1nccc(/C=C/C(=O)N2CCN(c3nc(OC[C@@]45CCCN4C[C@H](F)C5)nc4c3CCN(c3cccc5cccc(Cl)c35)C4)C[C@@H]2CC#N)n1 [Compound 123]
10 to 100 | 10 to 100 | 4.21 | 0.23 (≈ 0.311 µM) | CC(C)c1noc(/C=C/C(=O)N2CCN(c3nc(OCC45CCCN4CCC5)nc4c3CNC(c3cccc5cccc(Cl)c35)C4F)C[C@@H]2CC#N)n1 (stereo partly shown) [Compound 124]
10 to 100 | 10 to 100 | 4.24 | 0.01 (≈ 0.0135 µM) | CC(C)c1noc(/C=C/C(=O)N2CCN(c3nc(OCC45CCCN4CCC5)nc4c3CCN(c3cccc5ccc(F)c(Cl)c35)C4)C[C@@H]2CC#N)n1 [Compound 126]
< 10 | < 10 | 4.77 | 0.01 (≈ 0.0137 µM) | Cc1nsc(/C=C/C(=O)N2CCN(c3nc(OC[C@@]45CCCN4C[C@H](F)C5)nc4c3CCN(c3cccc5cccc(Cl)c35)C4)C[C@@H]2CC#N)n1 [Compound 127]
10 to 100 | 10 to 100 | 4.56 | 0.01 (≈ 0.0132 µM) | CC(C)c1noc(/C=C/C(=O)N2CCN(c3nc(OC[C@@]45CCCN4C[C@H](F)C5)nc4c3CCN(c3cccc5ccc(F)c(Cl)c35)C4)C[C@@H]2CC#N)n1 [Compound 128]
10 to 100 | 10 to 100 | 4.96 | 0.01 (≈ 0.0132 µM) | CC(C)c1noc(/C=C/C(=O)N2CCN(c3nc(OC[C@]45CCCN4C[C@H](F)C5)nc4c3CCN(c3cccc5ccc(F)c(Cl)c35)C4)C[C@@H]2CC#N)n1 [Compound 131]
< 10 | < 10 | 3.43 | 84 (≈ 115 µM) | Cc1nsc(/C=C/C(=O)N2CCN(c3nc(OCC45CCCN4CCC5)nc4c3CCN(c3cccc5ccc(F)c(Cl)c35)C4)C[C@@H]2CC#N)n1 [Compound 141]
